Measured values taken from PMC3816736 (Biochemical pharmacology, 2013).

How the values were obtained:
xanthine oxidase (XO) [1] = molecular target: T1, xanthine oxidase (XO) (Bos taurus, UniProt P80457); assay: spectrophotometric uric acid formation at […] nm; type: biochemical
xanthine oxidase (XO) [2] = molecular target: T1, xanthine oxidase (XO); assay: spectrophotometric uric acid formation at […] nm, […] compound; type: biochemical

T1 sequence (P80457 2-1332): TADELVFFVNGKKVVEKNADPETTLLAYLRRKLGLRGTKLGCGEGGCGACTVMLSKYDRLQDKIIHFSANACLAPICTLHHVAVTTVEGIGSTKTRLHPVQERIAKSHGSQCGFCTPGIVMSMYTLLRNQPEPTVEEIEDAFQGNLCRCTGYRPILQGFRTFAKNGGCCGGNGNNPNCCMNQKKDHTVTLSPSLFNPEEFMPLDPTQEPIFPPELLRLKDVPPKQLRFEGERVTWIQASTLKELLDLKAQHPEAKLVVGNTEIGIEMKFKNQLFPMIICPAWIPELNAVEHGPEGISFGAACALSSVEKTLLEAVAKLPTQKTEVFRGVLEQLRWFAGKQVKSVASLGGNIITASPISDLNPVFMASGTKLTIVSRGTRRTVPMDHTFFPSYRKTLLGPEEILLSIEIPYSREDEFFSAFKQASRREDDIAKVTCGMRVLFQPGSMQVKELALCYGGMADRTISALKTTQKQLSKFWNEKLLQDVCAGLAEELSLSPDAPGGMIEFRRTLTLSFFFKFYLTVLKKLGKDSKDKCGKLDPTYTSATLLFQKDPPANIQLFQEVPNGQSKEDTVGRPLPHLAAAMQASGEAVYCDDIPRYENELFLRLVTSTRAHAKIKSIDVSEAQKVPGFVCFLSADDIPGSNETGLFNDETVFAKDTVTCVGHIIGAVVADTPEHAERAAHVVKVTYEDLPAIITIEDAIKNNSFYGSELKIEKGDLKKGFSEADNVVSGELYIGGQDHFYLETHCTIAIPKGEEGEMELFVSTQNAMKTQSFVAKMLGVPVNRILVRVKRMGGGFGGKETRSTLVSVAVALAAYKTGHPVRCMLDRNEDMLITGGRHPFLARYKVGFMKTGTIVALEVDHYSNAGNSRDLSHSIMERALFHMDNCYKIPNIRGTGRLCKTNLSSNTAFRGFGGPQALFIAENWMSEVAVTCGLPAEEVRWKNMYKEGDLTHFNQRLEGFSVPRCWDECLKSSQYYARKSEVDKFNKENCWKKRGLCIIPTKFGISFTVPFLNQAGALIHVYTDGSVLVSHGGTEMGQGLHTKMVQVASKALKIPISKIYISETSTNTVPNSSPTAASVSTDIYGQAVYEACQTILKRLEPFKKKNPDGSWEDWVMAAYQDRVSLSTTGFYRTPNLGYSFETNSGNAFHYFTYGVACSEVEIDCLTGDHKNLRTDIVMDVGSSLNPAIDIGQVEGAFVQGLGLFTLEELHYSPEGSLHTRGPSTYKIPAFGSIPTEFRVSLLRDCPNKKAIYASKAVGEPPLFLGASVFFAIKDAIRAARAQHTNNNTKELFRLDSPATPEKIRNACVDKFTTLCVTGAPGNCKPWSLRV

OCc1ccc(O)c(O)c1 [DHBA, 3,4-dihydroxybenzyl alcohol]
IC50 (xanthine oxidase (XO) [1]): 76 µM

O=Cc1cc(O)c(O)c(O)c1 [THB-CHO, 3,4,5-trihydroxybenzaldehyde]
IC50 (xanthine oxidase (XO) [1]): > 80 µM

O=Cc1ccc(O)c(O)c1 [DHB-CHO, 3,4-dihydroxybenzaldehyde]
spectrophotometric uric acid formation at 295 nm, 20 μM compound (xanthine oxidase (XO) [2]): −CHO group such as DHNB, DH6NB, DHB-CHO and THB-CHO had an inhibitory effect on XO
